# Reference: ChEMBL document CHEMBL4402516, “5-Lipoxygenase as a drug target: A review on trends in inhibitors structural design, SAR and mechanism based approach” (Bioorg Med Chem, 2019)
# Columns and labels:
# Glycine max = assay: Inhibition of soybean 5-LOX at 100 uM incubated for 10 mins relative to control
# MCF7 = assay: Antiproliferative activity against human MCF7 cells by MTT assay; type: functional, cell-based
# [1] = target: T1, Polyunsaturated fatty acid 5-lipoxygenase (Homo sapiens, UniProt P09917); assay: Inhibition of 5-LOX in A23187-stimulated human neutrophils preincubated for 15 mins followed by A23187 stimulation and measured after 10 mins
# T1 sequence (P09917 whole entry): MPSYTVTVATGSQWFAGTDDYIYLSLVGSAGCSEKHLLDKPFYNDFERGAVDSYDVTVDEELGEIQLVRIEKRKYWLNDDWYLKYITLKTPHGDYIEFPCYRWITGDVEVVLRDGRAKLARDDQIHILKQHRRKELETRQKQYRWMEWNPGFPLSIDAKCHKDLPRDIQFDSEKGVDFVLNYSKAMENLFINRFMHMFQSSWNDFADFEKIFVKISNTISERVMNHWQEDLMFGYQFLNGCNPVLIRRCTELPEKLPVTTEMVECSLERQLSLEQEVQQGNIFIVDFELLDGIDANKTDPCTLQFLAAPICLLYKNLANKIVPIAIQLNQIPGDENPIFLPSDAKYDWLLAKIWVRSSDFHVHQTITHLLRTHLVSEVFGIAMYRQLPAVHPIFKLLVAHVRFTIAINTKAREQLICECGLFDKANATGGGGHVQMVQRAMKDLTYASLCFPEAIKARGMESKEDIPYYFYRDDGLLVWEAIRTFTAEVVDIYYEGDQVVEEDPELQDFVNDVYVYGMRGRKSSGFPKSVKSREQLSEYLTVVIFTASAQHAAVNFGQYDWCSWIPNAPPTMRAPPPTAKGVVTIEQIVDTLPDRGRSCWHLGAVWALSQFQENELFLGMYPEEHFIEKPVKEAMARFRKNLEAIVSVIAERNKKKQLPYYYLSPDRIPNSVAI
# [2] = target: T2, Polyunsaturated fatty acid 5-lipoxygenase (Homo sapiens) (UniProt P09917); assay: Inhibition of recombinant human 5-LOX expressed in Escherichia coli BL21 cells at 50 uM using arachidonic acid as substrate by UV-vis spectrophotometry relative to control
# T2 sequence (whole entry): T1 sequence (P09917 whole entry)
# [3] = target: Prostaglandin E synthase/G/H synthase 2 (Homo sapiens) (UniProt P35354+O14684); assay: Inhibition of COX2/mPGES1 in TNFalpha-induced human HeLa cells assessed as reduction in PGE2 production at 50 uM incubated for 3 hrs by EIA relative to control; type: cell-based
# Sequence of Prostaglandin E synthase/G/H synthase 2 (Homo sapiens) (O14684 whole entry, looked up): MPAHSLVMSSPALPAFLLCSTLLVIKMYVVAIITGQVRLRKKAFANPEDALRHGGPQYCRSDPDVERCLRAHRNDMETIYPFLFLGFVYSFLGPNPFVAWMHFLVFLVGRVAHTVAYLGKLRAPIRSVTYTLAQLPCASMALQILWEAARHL
# Sequence of Prostaglandin E synthase/G/H synthase 2 (Homo sapiens) (P35354 whole entry, looked up): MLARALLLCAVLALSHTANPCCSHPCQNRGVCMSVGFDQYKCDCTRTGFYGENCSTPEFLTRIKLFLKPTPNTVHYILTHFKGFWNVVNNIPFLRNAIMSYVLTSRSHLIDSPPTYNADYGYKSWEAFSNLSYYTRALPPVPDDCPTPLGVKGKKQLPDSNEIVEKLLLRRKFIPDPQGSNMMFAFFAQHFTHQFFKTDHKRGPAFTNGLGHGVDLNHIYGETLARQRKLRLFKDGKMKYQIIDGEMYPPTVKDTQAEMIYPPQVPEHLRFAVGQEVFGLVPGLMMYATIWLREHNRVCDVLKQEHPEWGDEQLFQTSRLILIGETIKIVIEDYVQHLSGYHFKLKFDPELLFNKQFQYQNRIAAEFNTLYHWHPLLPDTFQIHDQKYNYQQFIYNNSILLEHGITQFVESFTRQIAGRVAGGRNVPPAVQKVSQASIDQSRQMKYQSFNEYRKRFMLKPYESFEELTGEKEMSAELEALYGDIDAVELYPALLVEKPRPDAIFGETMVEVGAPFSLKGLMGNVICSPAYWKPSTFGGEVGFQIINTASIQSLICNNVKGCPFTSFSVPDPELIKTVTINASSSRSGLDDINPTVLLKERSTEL
# [4] = target: T1, Polyunsaturated fatty acid 5-lipoxygenase; assay: Inhibition of recombinant human 5-LOX expressed in baculovirus-infected insect cells preincubated for 10 mins followed by Arachidonic acid and ATP addition and measured after 20 mins by H2DCFD dye based fluorescence method
# [5] = target: T2, Polyunsaturated fatty acid 5-lipoxygenase (Homo sapiens); assay: Inhibition of 5-LOX in human whole blood preincubated for 10 mins followed by Arachidonic acid and ATP addition and measured after 20 mins by H2DCFD dye based fluorescence method; type: tissue-based
# [6] = target: T1, Polyunsaturated fatty acid 5-lipoxygenase; assay: Inhibition of recombinant human 5-LOX expressed in Escherichia coli BL21 (DE3) cells preincubated for 10 mins followed by arachidonic acid addition and measured after 10 mins by RP-HPLC method
# [7] = target: T1, Polyunsaturated fatty acid 5-lipoxygenase; assay: Inhibition of human PMNL 5-LOX using arachidonic acid as substrate after 5 mins by HPLC method
# [8] = Inhibition of soybean 15-LOX by spectrophotometric method; parameters: species or system Glycine max
# [9] = Inhibition of potato 5-LOX using linoleic acid as substrate measured at 2 min by UV absorbance method; parameters: species or system Solanum tuberosum
# [10] = target: T3, Polyunsaturated fatty acid 5-lipoxygenase (Rattus norvegicus, UniProt P12527); assay: Inhibition of rat 5-LOX expressed in insect sf21 cells preincubated for 4 mins followed by Arachidonic acid addition and measured after 4 mins by FOX assay
# T3 sequence (P12527 whole entry): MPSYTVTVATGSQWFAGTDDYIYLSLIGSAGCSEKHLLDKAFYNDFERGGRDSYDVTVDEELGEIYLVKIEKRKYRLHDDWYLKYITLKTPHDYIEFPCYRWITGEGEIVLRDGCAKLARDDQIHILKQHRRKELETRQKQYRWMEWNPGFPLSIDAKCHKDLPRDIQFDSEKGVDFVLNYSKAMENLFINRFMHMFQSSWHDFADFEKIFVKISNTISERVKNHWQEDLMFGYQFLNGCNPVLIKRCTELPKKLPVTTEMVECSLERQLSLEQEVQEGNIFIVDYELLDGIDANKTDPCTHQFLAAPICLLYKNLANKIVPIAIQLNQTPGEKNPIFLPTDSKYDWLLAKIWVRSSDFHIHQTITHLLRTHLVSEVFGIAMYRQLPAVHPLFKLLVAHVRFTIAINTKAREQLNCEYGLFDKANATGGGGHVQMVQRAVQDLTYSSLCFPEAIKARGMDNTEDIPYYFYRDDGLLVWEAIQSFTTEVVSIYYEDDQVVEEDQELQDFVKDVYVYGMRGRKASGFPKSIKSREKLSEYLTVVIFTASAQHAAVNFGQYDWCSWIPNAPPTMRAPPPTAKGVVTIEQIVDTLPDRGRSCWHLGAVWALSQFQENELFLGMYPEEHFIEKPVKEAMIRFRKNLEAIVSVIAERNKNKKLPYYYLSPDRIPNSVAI
# [11] = target: T1, Polyunsaturated fatty acid 5-lipoxygenase; assay: Inhibition of 5-LOX (unknown origin) after 5 mins by colorimetric method
# [12] = target: T4, Polyunsaturated fatty acid 5-lipoxygenase (Rattus norvegicus) (UniProt P12527); assay: Inhibition of rat 5-LOX expressed in insect sf21 cells at 1 uM preincubated for 4 mins followed by Arachidonic acid addition and measured after 4 mins by FOX assay relative to control
# T4 sequence (whole entry): T3 sequence (P12527 whole entry)
# [13] = target: T4, Polyunsaturated fatty acid 5-lipoxygenase (Rattus norvegicus); assay: Inhibition of 5-LOX in rat RBL-1 cells assessed as reduction in LTB4 secretion at 1 uM preincubated for 10 mins followed by A23187 stimulation and measured after 15 mins by EIA; type: cell-based
# [14] = target: T1, Polyunsaturated fatty acid 5-lipoxygenase; assay: Inhibition of human leukocyte 5-LOX using arachidonic acid as substrate by UV/Vis spectrophotometry
# [15] = target: T1, Polyunsaturated fatty acid 5-lipoxygenase; assay: Competitive inhibition of recombinant human 5-LOX expressed in Escherichia coli BL21 cells using Arachidonic acid as substrate by UV absorbance
smiles,measurement,setting,value
NCCCC(=O)c1cc(=O)c2cc(F)ccc2o1,inhibition,Glycine max,68%
same,IC50,MCF7,0.9 µM
Cc1cccc(OC(=O)c2cc([N+](=O)[O-])cc([N+](=O)[O-])c2)c1,IC50,[1],0.9 µM
CS(=O)(=O)NC(Cc1cc(I)c(OCc2ccon2)c(I)c1)C(=O)O (stereo unspecified),inhibition,[2],74%
same,inhibition,[3],66%
Cn1nccc1-c1ccc(Sc2ccc(C3(C(N)=O)CCOCC3)cc2)cc1,IC50,[4],0.229 µM
same,IC80,[5],0.37 µM
O=C(NCCCCCCCCCNC(=O)c1cccc(O)c1O)c1cccc(O)c1O,IC50,[6],0.1 µM
C=CCSCC=C [DIALLYL SULFIDE],IC50,[7],83 µM
O=C/C=C/c1ccccc1,IC50,[7],35 µM
CCCCCC(=O)c1c(O)cc(O)c(C/C=C(\C)CCC=C(C)C)c1O,IC50,[8],10.3 µM
O=C(c1[nH]nc2c1CSc1sc(Br)cc1-2)N1CCN(c2ccccc2F)CC1,IC50,[9],33.7 µM
CC(C)=CCn1cc(/C=N/NC(N)=O)c2cc(Br)ccc21,IC50,[10],0.12 µM
Cc1cc(Nc2ncc(-c3ccc(F)cc3)o2)cc(C)c1O,IC50,[11],48.3 µM
COc1ccc(/C=C2\SC(c3ccc4ccccc4c3)=NC2=O)cc1,inhibition,[12],96%
same,inhibition,[13],98%
COc1cc(CNC(=O)CCCC/C=C/C(C)C)ccc1O [CAPSAICIN],IC50,[7],56 µM
C=CCc1ccc(O)c(OC)c1 [EUGENOL],IC50,[7],26 µM
Cc1ccc(S(=O)(=O)n2c(C(=O)C(=O)N3CCCC3)cc3ccccc32)cc1,IC50,[14],0.17 µM
O=C(/C=C/C=C/c1ccc2c(c1)OCO2)N1CCCCC1 [PIPERINE],IC50,[7],54 µM
Clc1ccc(-c2cc(-c3c[nH]c4ccccc34)cc(-c3ccc(Cl)cc3)n2)cc1,IC50,[15],10 µM
